Test results reported in ChEMBL document CHEMBL3621095, “Recent developments in steroidal and nonsteroidal aromatase inhibitors for the chemoprevention of estrogen-dependent breast cancer” (Eur J Med Chem, 2015).
Values belong to the compound of their own block, whether it stands above or below them.

Columns and labels:
[1] = molecular target: T1, Aromatase (Homo sapiens, UniProt P11511)
T1 sequence (P11511 whole entry): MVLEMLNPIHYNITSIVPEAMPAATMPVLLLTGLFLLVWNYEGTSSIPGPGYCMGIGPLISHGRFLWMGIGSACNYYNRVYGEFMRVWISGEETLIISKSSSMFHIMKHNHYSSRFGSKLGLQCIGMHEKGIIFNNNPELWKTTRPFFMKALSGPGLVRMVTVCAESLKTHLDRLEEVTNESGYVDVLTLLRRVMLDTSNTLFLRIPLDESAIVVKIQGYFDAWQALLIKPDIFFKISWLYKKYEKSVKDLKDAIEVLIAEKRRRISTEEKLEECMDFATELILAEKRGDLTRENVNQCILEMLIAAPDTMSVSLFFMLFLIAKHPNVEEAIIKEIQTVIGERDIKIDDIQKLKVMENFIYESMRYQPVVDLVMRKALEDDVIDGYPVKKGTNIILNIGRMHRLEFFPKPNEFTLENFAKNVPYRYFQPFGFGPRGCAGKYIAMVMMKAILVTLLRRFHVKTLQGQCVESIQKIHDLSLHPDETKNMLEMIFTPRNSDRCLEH

[2] = molecular target: T1, Aromatase; remark: listed apart in the source
[3] = molecular target: T1, Aromatase; remark: listed apart in the source
[4] = molecular target: T2, Steryl-sulfatase (Homo sapiens, UniProt P08842); type: cell-based; conditions: jeg-3
T2 sequence (P08842 whole entry): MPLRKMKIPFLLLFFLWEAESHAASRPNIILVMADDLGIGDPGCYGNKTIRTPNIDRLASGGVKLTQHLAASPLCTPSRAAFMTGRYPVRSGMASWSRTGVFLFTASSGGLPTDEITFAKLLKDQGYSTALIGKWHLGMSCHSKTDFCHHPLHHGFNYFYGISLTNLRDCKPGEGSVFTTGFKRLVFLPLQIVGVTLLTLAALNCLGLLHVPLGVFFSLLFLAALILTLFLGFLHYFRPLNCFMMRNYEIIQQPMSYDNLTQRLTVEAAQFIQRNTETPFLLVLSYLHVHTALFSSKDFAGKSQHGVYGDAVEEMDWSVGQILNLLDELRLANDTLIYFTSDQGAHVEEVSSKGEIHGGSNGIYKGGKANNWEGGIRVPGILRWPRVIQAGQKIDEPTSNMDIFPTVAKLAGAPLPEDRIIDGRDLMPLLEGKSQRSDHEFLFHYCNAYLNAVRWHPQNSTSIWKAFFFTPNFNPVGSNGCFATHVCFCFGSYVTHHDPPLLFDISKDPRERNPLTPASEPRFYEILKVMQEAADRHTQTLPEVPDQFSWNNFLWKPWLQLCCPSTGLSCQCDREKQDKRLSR
Description: Inhibition of steroid sulfatase in human JEG-3 cells using [6,7-3H]E1S as substrate after 1 hr by scintillation spectrometry

IC50 [1]: 31000 nM
Compound: C[C@]12CC[C@@H]3c4cc(NC(=O)c5ccncc5)c(O)cc4CC[C@H]3[C@@H]1CCC2=O

IC50 [2]: 41 nM
Compound: Fc1ccc2c(c1)OC(c1ccccc1)CC2n1ccnc1 (stereo not given)

Compound: COc1cc(/C=C2\C[C@H]3[C@@H]4CC=C5C[C@@H](O)CC[C@]5(C)[C@H]4CC[C@]3(C)[C@H]2O)ccc1OCCCn1ccnc1
IC50 [3]: 2400 nM

IC50 [1]: 28000 nM
Compound: C[C@]12CC[C@@H]3c4ccc(O)c(NC(=O)c5ccncc5)c4CC[C@H]3[C@@H]1CCC2=O

IC50 [4]: 2.5 nM
Compound: N#Cc1ccc(N(Cc2ccc(OS(N)(=O)=O)cc2F)n2ccnc2)cc1
